What all share (type): in vivo
Experiment [1] concerns cotton melon aphid (Aphis gossypii (Glover)). Put plainly: Test F: control of cotton melon aphid through contact and/or systemic means. As to conditions: 144 h, assessed after 6 days; for mortality at 50 ppm: sprayed at 50 ppm; for mortality at 250 ppm: sprayed at 250 ppm.
Experiment [2] relates to potato leafhopper (Empoasca fabae (Harris)). The experiment in a line: Test D: control of potato leafhopper through contact and/or systemic means. The settings on record: 144 h, assessed after 6 days; for mortality at 50 ppm: sprayed at 50 ppm; for mortality at 250 ppm: sprayed at 250 ppm. As for the experimental part: (§1) Test compounds were formulated using a solution containing 10% acetone, 90% water and 300 ppm Activator 90® non-ionic surfactant (Loveland Products, Loveland, Colo., USA). The formulated compounds were applied in 1 mL of liquid through an atomizer nozzle positioned 1.27 cm (0.5 inches) above the top of each test unit. Test compounds were sprayed at the rates indicated, and each test was replicated three times.
For evaluating control of potato leafhopper (Empoasca fabae (Harris)) through contact and/or systemic means, the test unit consisted of a small open container with a 5-6-day-old Soleil bean plant (primary leaves emerged) inside. White sand was added to the top of the soil, and one of the primary leaves was excised prior to application of the test compound.
Test compounds were formulated and sprayed at 250 and/or 50 ppm. After spraying of the formulated test compound, the test units were allowed to dry for 1 hour before they were post-infested with 5 potato leafhoppers (18-to-21-day-old adults). A black, screened cap was placed on the top of the test unit, and the test units were held for 6 days in a growth chamber at 20° C. and 70% relative humidity. Each test unit was then visually assessed for insect mortality.

Experiment [3] has as its system green peach aphid (Myzus persicae (Sulzer)). The experiment in a line: Test E: control of green peach aphid through contact and/or systemic means. The settings on record: 144 h, assessed after 6 days; for mortality at 50 ppm: sprayed at 50 ppm; for mortality at 250 ppm: sprayed at 250 ppm. As for the experimental part: as §1
For evaluating control of green peach aphid (Myzus persicae (Sulzer)) through contact and/or systemic means, the test unit consisted of a small open container with a 12-15-day-old radish plant inside. This was pre-infested by placing on a leaf of the test plant 30-40 aphids on a piece of leaf excised from a culture plant (cut-leaf method). The aphids moved onto the test plant as the leaf piece desiccated. After pre-infestation, the soil of the test unit was covered with a layer of sand.
Test compounds were formulated and sprayed at 250 and/or 50 ppm. After spraying of the formulated test compound, each test unit was allowed to dry for 1 hour and then a black, screened cap was placed on top. The test units were held for 6 days in a growth chamber at 19-21° C. and 50-70% relative humidity. Each test unit was then visually assessed for insect mortality.

Experiment [4] relates to sweetpotato whitefly (Bemisia tabaci (Gennadius)). The experiment in a line: Test G: control of sweetpotato whitefly through contact and/or systemic means. As to conditions: 312 h, assessed after 13 days; for mortality at 50 ppm: sprayed at 50 ppm; for mortality at 250 ppm: sprayed at 250 ppm. As for the experimental part: as §1
For evaluating control of the sweetpotato whitefly (Bemisia tabaci (Gennadius)) through contact and/or systemic means, the test unit consisted of a small open container with a 12-14-day-old cotton plant or 7-9-day-old soybean plant inside. Prior to the spray application, both cotyledons were removed from the plant, leaving one true leaf for the assay. Adult whiteflies were allowed to lay eggs on the plant and then were removed from the test unit. Cotton or soybean plants infested with at least 15 eggs were submitted to the test for spraying.
Test compounds were formulated and sprayed at 250 and/or 50 ppm. After spraying, the test units were allowed to dry for 1 hour. The cylinders were then removed, and the units were taken to a growth chamber and held for 13 days at 28° C. and 50-70% relative humidity. Each test unit was then visually assessed for insect mortality.

Some results are limits rather than exact numbers.

Take `O=C(Nc1ccc(Cl)c(CNC(=O)C(F)(F)F)c1)C1C(c2ccc(F)c(Cl)c2)C1(Cl)Cl` (stereo not shown) [Compound 19, 2,2-dichloro-3-(3-chloro-4-fluorophenyl)-N-[4-chloro-3-[[(2,2,2-trifluoroacetyl)amino]methyl]phenyl]cyclopropanecarboxamide]: the mortality (as a rule, the percentage killed) at 50 ppm in experiment [1] is no less than 80%; in experiment [2], no less than 80%; in experiment [3], no less than 80%; in experiment [4], no less than 70%. The mortality at 250 ppm is no less than 80% in experiment [1], no less than 80% in experiment [2], no less than 80% in experiment [3] and no less than 70% in experiment [4].
Turning to `O=C(NCc1cc(NC(=O)C2C(c3ccc(F)c(C(F)(F)F)c3)C2(Cl)Cl)ccc1Cl)C1CC1` (stereo not shown) [Compound 39, 2,2-dichloro-N-[4-chloro-3-[[(cyclopropylcarbonyl)amino]methyl]phenyl]-3-[4-fluoro-3-(trifluoromethyl)phenyl]cyclopropanecarboxamide], the mortality at 50 ppm in experiment [1] was no less than 80%; in experiment [2] it was no less than 80%; in experiment [3] it was no less than 80%; in experiment [4], no less than 70%. In addition, the mortality at 250 ppm in experiment [1] is no less than 80%; in experiment [2], no less than 80%; in experiment [3], no less than 80%; in experiment [4], no less than 70%.
As to `CC(=O)NCc1cc(NC(=O)C2C(c3cc(Cl)cc(Cl)c3)C2(F)F)ccc1Cl` (stereo not shown) [Compound 47], the mortality at 50 ppm in experiment [1] and in experiment [2] was no less than 80% each time. Besides, the mortality at 250 ppm in experiment [1], in experiment [2] and in experiment [3] was no less than 80% each time.
For `O=C(NCc1cc(NC(=O)C2C(c3cc(Cl)cc(Cl)c3)C2(F)F)ccc1Cl)C1CC1` (stereo not shown) [Compound 48], the mortality at 250 ppm in experiment [1] and in experiment [2] was no less than 80% in each case. For the same compound, the mortality at 50 ppm in experiment [2] is no less than 80%.
Turning to `CCC(=O)NCc1cc(NC(=O)C2C(c3cc(Cl)cc(Cl)c3)C2(Cl)Cl)ccc1F` (stereo not shown) [Compound 55, 2,2-dichloro-3-(3,5-dichlorophenyl)-N-[4-fluoro-3-[(propanoylamino)methyl]phenyl]cyclopropane-1-carboxamide], the mortality at 50 ppm in experiment [1], in experiment [2] and in experiment [3] was no less than 80% each time. In addition, the mortality at 250 ppm in experiment [1], in experiment [2] and in experiment [3] was no less than 80% in each case.
Take `O=C(NCc1cc(NC(=O)C2C(c3cc(Cl)cc(Cl)c3)C2(Cl)Cl)ccc1Cl)C1CC1` (stereo not shown) [Compound 62, 2,2-dichloro-N-[4-chloro-3-[(cyclopropanecarbonylamino)methyl]phenyl]-3-(3,5-dichlorophenyl)cyclopropane-1-carboxamide]: the mortality at 50 ppm in experiment [1], in experiment [2] and in experiment [3] was no less than 80% in each case. For the same compound, the mortality at 250 ppm is no less than 80% in experiment [1], no less than 80% in experiment [2], no less than 80% in experiment [3] and no less than 70% in experiment [4].
Take `O=C(NCc1cc(NC(=O)C2C(c3ccc(F)c(C(F)(F)F)c3)C2(Cl)Cl)ccc1F)C1CC1` (stereo not shown) [Compound 77, 2,2-dichloro-N-[3-[[(cyclopropylcarbonyl)amino]methyl]-4-fluorophenyl]-3-[4-fluoro-3-(trifluoromethyl)phenyl]cyclopropanecarboxamide]: the mortality at 50 ppm was no less than 80% in experiment [1], no less than 80% in experiment [2], no less than 80% in experiment [3] and no less than 70% in experiment [4]. In addition, in experiment [4], the mortality at 250 ppm was no less than 70%.
Regarding `O=C(CC(F)(F)F)NCc1cc(NC(=O)C2C(c3ccc(F)c(C(F)(F)F)c3)C2(Cl)Cl)ccc1F` (stereo not shown) [Compound 78, 2,2-dichloro-3-[4-fluoro-3-(trifuoromethyl)phenyl]-N-[4-fluoro-3-[[(3,3,3-trifluoro-1-oxopropyl)amino]methyl]phenyl]cyclopropanecarboxamide], the mortality at 50 ppm is no less than 80% in experiment [1], no less than 80% in experiment [2], no less than 80% in experiment [3] and no less than 70% in experiment [4].
For `O=C(CC(F)(F)F)NCc1cc(NC(=O)C2C(c3ccc(Cl)c(Cl)c3)C2(Cl)Cl)ccc1F` (stereo not shown) [Compound 79, 2,2-dichloro-3-(3,4-dichlorophenyl)-N-[4-fluoro-3-[[(3,3,3-trifluoro-1-oxopropyl)amino]methyl]phenyl]cyclopropanecarboxa-mide], the mortality at 50 ppm in experiment [1] and in experiment [2] was no less than 80% each time. In experiment [4], the mortality at 250 ppm was no less than 70%.
`CCC(=O)NC(C)c1cc(NC(=O)C2C(c3cc(Cl)cc(Cl)c3)C2(Cl)Cl)ccc1Cl` (stereo not shown) [Compound 86] showed a mortality at 50 ppm in experiment [2] of no less than 80%.
In experiment [2], `CC(NC(=O)C1CC1)c1cc(NC(=O)C2C(c3cc(Cl)cc(Cl)c3)C2(Cl)Cl)ccc1Cl` (stereo not shown) [Compound 87] returned a mortality at 50 ppm of no less than 80%.
Regarding `O=C(CC(F)(F)F)NCc1cc(NC(=O)C2C(c3ccc(F)c(C(F)(F)F)c3)C2(Cl)Cl)ccc1Cl` (stereo not shown) [Compound 116, 2,2-dichloro-N-[4-chloro-3-[[(3,3,3-trifluoro-1-oxopropyl)amino]methyl]phenyl]-3-[4-fluoro-3-(trifluoromethyl)phenyl]cyclopropanecarboxamide], the mortality at 50 ppm in experiment [2] was no less than 80%.
Consider `O=C(CC(F)(F)F)NCc1cc(NC(=O)C2C(c3cc(F)c(F)c(F)c3)C2(Cl)Cl)ccc1Cl` (stereo not shown) [Compound 118, 2,2-dichloro-N-[4-chloro-3-[[(3,3,3-trifluoro-1-oxopropyl)amino]methyl]phenyl]-3-(3,4,5-trifluorophenyl)cyclopropanecarboxamide], for which the mortality at 50 ppm in experiment [2] is no less than 80%. The same compound yielded a mortality at 250 ppm in experiment [4] of no less than 70%.
Regarding `O=C(CC(F)(F)F)NCc1cc(NC(=O)C2C(c3cc(F)cc(Cl)c3)C2(Cl)Cl)ccc1F` (stereo not shown) [Compound 129, 2,2-dichloro-3-(3-chloro-5-fluorophenyl)-N-[4-fluoro-3-[[(3,3,3-trifluoro-1-oxopropyl)amino]methyl]phenyl]cyclopropanecarboxamide], the mortality at 50 ppm is no less than 80% in experiment [1], no less than 80% in experiment [2], no less than 80% in experiment [3] and no less than 70% in experiment [4]. The same compound returned a mortality at 250 ppm in experiment [4] of no less than 70%.
On to `O=C(NCc1cc(NC(=O)C2C(c3cc(Cl)cc(Cl)c3)C2(Cl)Cl)ccc1Cl)C1CC1` (stereo not shown) [Compound 148], for which the mortality at 50 ppm in experiment [4] is no less than 70%.
Turning to `O=C(NCc1c(F)ccc(NC(=O)C2C(c3ccc(F)c(Cl)c3)C2(Cl)Cl)c1F)C1CC1` (stereo not shown) [Compound 164, 2,2-dichloro-3-(3-chloro-4-fluorophenyl)-N-[3-[[(cyclopropylcarbonyl)amino]methyl]-2,4-difluorophenyl]cyclopropanecarboxamide], the mortality at 50 ppm in experiment [2] is no less than 80%.
Consider `O=C(CC(F)(F)F)NCc1cc(NC(=O)C2C(c3cc(F)c(Cl)c(F)c3)C2(Cl)Cl)ccc1F` (stereo not shown) [Compound 169, 2,2-dichloro-3-(4-chloro-3,5-difluorophenyl)-N-[4-fluoro-3-[[(3,3,3-trifluoro-1-oxopropyl)amino]methyl]phenyl]cyclopropanecarboxamide], for which the mortality at 50 ppm in experiment [1], in experiment [2] and in experiment [3] was no less than 80% in each case.
As for `O=C(CC(F)(F)F)NCc1c(F)ccc(NC(=O)C2C(c3ccc(F)c(Cl)c3)C2(Cl)Cl)c1F` (stereo not shown) [Compound 170, 2,2-dichloro-3-(3-chloro-4-fluorophenyl)-N-[2,4-difluoro-3-[[(3,3,3-trifluoro-1-oxopropyl)amino]methyl]phenyl]cyclopropanecarboxamide], the mortality at 50 ppm in experiment [1], in experiment [2] and in experiment [3] was no less than 80% throughout.
Turning to `O=C(Nc1ccc(Cl)c(CNC(=O)C(F)(F)F)c1)C1C(c2ccc(Cl)c(Cl)c2)C1(Cl)Cl` (stereo not shown) [Compound 175, 2,2-dichloro-N-[4-chloro-3-[[(2,2,2-trifluoroacetyl)amino]methyl]phenyl]-3-(3,4-dichlorophenyl)cyclopropanecarboxamide], the mortality at 50 ppm in experiment [1], in experiment [2] and in experiment [3] was no less than 80% in each case.

Values taken from patent US20210400977A1, “META-DIAMIDE COMPOUNDS FOR CONTROLLING INVERTEBRATE PESTS” (FMC Corporation, priority 2018, published 2021).
